Laboratory results from patent publication US20220305012A1, “L[…] TREATING SLEEP ISSUES” (EISAI R&D MANAGEMENT CO., LTD., priority 2019, published 2022).

Key:
Type in all cases: in vivo, human
[1] = tested on: Subjects Having Insomnia Disorder; test: Example 2: sleep efficiency (SE), polysomnography
Protocol: (§1) In some embodiments, a sleep parameter is determined objectively using polysomnography. Polysomnography is the monitoring of multiple electrophysiological parameters during sleep and generally includes measurement of EEG activity, electro-oculographic activity and electromyographic activity, as well as other measurements.
SE—sleep efficiency: proportion of time spent asleep per time in bed, calculated as TST/interval from lights off until lights on.
(§2) The treatment period lasted for 31 days. Subjects were randomized in a double-blind manner and received placebo, a tablet containing 5 mg of lemborexant, a tablet containing 10 mg of lemborexant, or a tablet containing 6.25 mg of zolpidem ER.
(§3) Within 5 minutes of the subject's mean habitual bedtime, study drug was administered and an overnight polysomnogram recording was initiated. At completion of the recording the following morning (Day 2), postural stability and cognitive performance were assessed. On the Day 2 evening, subjects returned to the clinic and a blood sample was collected before administering study drug, and then study drug was administered within 5 minutes of the subject's mean habitual bedtime. Again, a polysomnogram recording was initiated. The next morning (Day 3), postural stability and cognitive performance were assessed. A blood sample was also collected.
(§4) On Day 29, subjects returned to the clinic. Study drug was administered within 5 minutes of the subject's mean habitual bedtime and a polysomnogram recording was conducted. On the following morning (Day 30), postural stability and cognitive performance were assessed. After 1.5 hours of waketime, subjects rated their morning sleepiness level.
(§5) On the evening of Day 30, subjects returned to the clinic. A pre-dose blood sample was collected and study drug was again administered within 5 minutes of the subject's mean habitual bedtime. A polysomnogram recording was initiated. The following morning (Day 31), postural stability and cognitive performance were assessed and a blood sample was obtained. The ISI, FSS, EQ-5D-3L and PGI-Insomnia were administered. Blood and urine samples were collected for routine safety assessment. An electrocardiogram was performed, and vital signs and weight were assessed. The eC-SSRS was then administered to the subject. At 1.5 hours after waketime, subjects rated their morning sleepiness level.
One key secondary endpoint was to determine the change from baseline for mean sleep efficiency on Days 29 and 30 after administration of 5 mg or 10 mg of lemborexant, compared to placebo.

[2] = tested on: Subjects Having Insomnia Disorder; test: Example 2: wake after sleep onset in the second half of the night (WASO2H), polysomnography
Protocol: as §1
WASO2H: wake after sleep onset in the second half of the night: minutes of wake during the interval from 240 minutes after lights off until lights on.
as §2, §3, §4, §5
Another key secondary endpoint was to determine the change from baseline for mean wake after sleep onset in the second half of the night on Days 29 and 30 after administration of 5 mg or 10 mg of lemborexant compared to administration of 6.25 mg of zolpidem ER.

[3] = tested on: Subjects Having Insomnia Disorder; test: Example 2: subjective sleep onset latency (sSOL), sleep diary
Text: As used herein, the term “subjective sleep onset latency”, abbreviated as “sSOL”, means the estimated number of minutes from the time that the subject attempted to sleep until sleep onset. In some embodiments, sSOL is derived from data entered in a subject's Sleep Diary.
In some embodiments, sleep diaries were used to assess sleep parameters reported by subjects (i.e., subjective assessments) including subjective sleep onset latency (sSOL), subjective sleep efficiency (sSE), subjective WASO (sWASO), and subjective total sleep time (sTST). Subjects were instructed to complete the Sleep Diary developed based on the consensus Sleep Diary as described in Carney et al., “The consensus sleep diary: standardizing prospective sleep self-monitoring,” Sleep 2012; 35(2):287-302. In some embodiments, the Sleep Diary was used to assess the subject's global perception of quality of sleep on the previous night with the following question: “How would you rate the quality of your sleep last night?” Subjects rated the quality of their sleep on a scale from 1 to 9, with 1 being extremely poor and 9 being extremely good. In some embodiments, the Sleep Diary was used to assess subjective ratings of morning sleepiness with the following question: “How alert/sleepy do you feel this morning?” Subjects rated their sleepiness/alertness level on a Likert scale from 1 to 9, with 1 being extremely sleepy and 9 being extremely alert.
sSOL—subjective sleep onset latency: estimated minutes from the time that the subject attempted to sleep until sleep onset.
as §2
Once home, the subject ingested study drug each night prior to bedtime and completed their sleep diary within 1 hour of waketime.

[4] = tested on: Subjects Having Insomnia Disorder; test: Example 2: Cognitive Performance Assessment Battery; conditions: either dose, at either time point (FIGS. 11A-11D)
Protocol: FIG. 11A-FIG. 11D show the change from baseline (least squares mean) in the four domains of the Cognitive Performance Assessment Battery at Days 2/3 and Days 30/31 in patients treated with placebo, 6.25 mg of zolpidem, 5 mg of lemborexant, or 10 mg of lemborexant.
Subjects were provided with a sleep diary and trained on how to record entries. After subjects completed the sleep diary on 7 consecutive mornings, and provided that the subject was still eligible to participate in the study, they attended a second clinical meeting between 10 and 17 days before the randomization phase. […]
Within 5 minutes of the subject's mean habitual bedtime, study drug was administered and an overnight polysomnogram recording was initiated. At completion of the recording the following morning (Day 2), postural stability and cognitive performance were assessed. […] The next morning (Day 3), postural stability and cognitive performance were assessed. […]
On Day 29, subjects returned to the clinic. […] On the following morning (Day 30), postural stability and cognitive performance were assessed. […]
On the evening of Day 30, subjects returned to the clinic. […] The following morning (Day 31), postural stability and cognitive performance were assessed and a blood sample was obtained. […] An electrocardiogram was performed, and vital signs and weight were assessed. […]

[5] = 5 mg, First 7 Nights of Treatment
[6] = 5 mg, Last 7 Nights of Treatment
[7] = 10 mg, First 7 Nights of Treatment
[8] = 10 mg, Last 7 Nights of Treatment

Cc1ncc(OC[C@@]2(c3cccc(F)c3)C[C@H]2C(=O)Nc2ccc(F)cn2)c(C)n1 [Lemborexant, (1R,2S)-2-(((2,4-dimethylpyrimidin-5-yl)oxy)methyl)-2-(3-fluorophenyl)-N-(5-fluoropyridin-2-yl)cyclopropanecarboxamide]
Sleep Efficiency, Change from Study Baseline, Mean (SD) ([1]; Days 1/2, Lemborexant 5 mg): 13.60 (9.725) | Sleep Efficiency, Change from Study Baseline, Median ([1]; Days 1/2, Lemborexant 5 mg): 12.40 | Sleep Efficiency, Mean (SD) ([1]; Days 1/2, Lemborexant 5 mg): 81.96 (8.384) | Sleep Efficiency, Median ([1]; Days 1/2, Lemborexant 5 mg): 83.62 | Sleep Efficiency, Change from Study Baseline, Mean (SD) ([1]; Days 1/2, Lemborexant 10 mg): 16.48 (9.623) | Sleep Efficiency, Change from Study Baseline, Median ([1]; Days 1/2, Lemborexant 10 mg): 15.47 | Sleep Efficiency, Mean (SD) ([1]; Days 1/2, Lemborexant 10 mg): 84.33 (7.608) | Sleep Efficiency, Median ([1]; Days 1/2, Lemborexant 10 mg): 85.73 | Sleep Efficiency, Change from Study Baseline, LSM treatment difference: Lemborexant-Zolpidem ([1]; Days 29/30, Lemborexant 5 mg): 3.92 (0.705) | Sleep Efficiency, Change from Study Baseline, Mean (SD) ([1]; Days 29/30, Lemborexant 5 mg): 12.93 (9.741) | Sleep Efficiency, Change from Study Baseline, Median ([1]; Days 29/30, Lemborexant 5 mg): 11.85 | Sleep Efficiency, Mean (SD) ([1]; Days 29/30, Lemborexant 5 mg): 81.29 (8.800) | Sleep Efficiency, Median ([1]; Days 29/30, Lemborexant 5 mg): 83.26 | Sleep Efficiency, Change from Study Baseline, LSM treatment difference: Lemborexant-Zolpidem ([1]; Days 29/30, Lemborexant 10 mg): 4.88 (0.702) | Sleep Efficiency, Change from Study Baseline, Mean (SD) ([1]; Days 29/30, Lemborexant 10 mg): 14.09 (10.514) | Sleep Efficiency, Change from Study Baseline, Median ([1]; Days 29/30, Lemborexant 10 mg): 13.57 | Sleep Efficiency, Mean (SD) ([1]; Days 29/30, Lemborexant 10 mg): 81.99 (8.801) | Sleep Efficiency, Median ([1]; Days 29/30, Lemborexant 10 mg): 83.52 | mean sleep efficiency ([1]; all lemborexant treatment groups, relative to baseline, placebo and zolpidem treatment groups (Table 14)): increased | Wake After Sleep Onset in the Second Half of the Night, Change from Study Baseline, Mean (SD) ([2]; Days 1/2, Lemborexant 5 mg): −30.28 (32.056) | Wake After Sleep Onset in the Second Half of the Night, Change from Study Baseline, Median ([2]; Days 1/2, Lemborexant 5 mg): −27.63 | Wake After Sleep Onset in the Second Half of the Night, Mean (SD) ([2]; Days 1/2, Lemborexant 5 mg): 46.32 (25.600) | Wake After Sleep Onset in the Second Half of the Night, Median ([2]; Days 1/2, Lemborexant 5 mg): 40.88 | Wake After Sleep Onset in the Second Half of the Night, Change from Study Baseline, Mean (SD) ([2]; Days 1/2, Lemborexant 10 mg): −37.10 (30.815) | Wake After Sleep Onset in the Second Half of the Night, Change from Study Baseline, Median ([2]; Days 1/2, Lemborexant 10 mg): −32.00 | Wake After Sleep Onset in the Second Half of the Night, Mean (SD) ([2]; Days 1/2, Lemborexant 10 mg): 39.78 (23.709) | Wake After Sleep Onset in the Second Half of the Night, Median ([2]; Days 1/2, Lemborexant 10 mg): 34.00 | Wake After Sleep Onset in the Second Half of the Night, Change from Study Baseline, LSM treatment difference: Lemborexant-Zolpidem ([2]; Days 29/30, Lemborexant 5 mg): −6.65 (2.298) | Wake After Sleep Onset in the Second Half of the Night, Change from Study Baseline, Mean (SD) ([2]; Days 29/30, Lemborexant 5 mg): −27.19 (33.047) | Wake After Sleep Onset in the Second Half of the Night, Change from Study Baseline, Median ([2]; Days 29/30, Lemborexant 5 mg): −25.63 | Wake After Sleep Onset in the Second Half of the Night, Mean (SD) ([2]; Days 29/30, Lemborexant 5 mg): 49.11 (28.179) | Wake After Sleep Onset in the Second Half of the Night, Median ([2]; Days 29/30, Lemborexant 5 mg): 42.13 | Wake After Sleep Onset in the Second Half of the Night, Change from Study Baseline, LSM treatment difference: Lemborexant-Zolpidem ([2]; Days 29/30, Lemborexant 10 mg): −8.00 (2.309) | Wake After Sleep Onset in the Second Half of the Night, Change from Study Baseline, Median ([2]; Days 29/30, Lemborexant 10 mg): −27.25 | Wake After Sleep Onset in the Second Half of the Night, Mean (SD) ([2]; Days 29/30, Lemborexant 10 mg): 48.15 (27.844) | Wake After Sleep Onset in the Second Half of the Night, Median ([2]; Days 29/30, Lemborexant 10 mg): 41.75 | mean wake after sleep onset in the second half of the night ([2]; all lemborexant treatment groups, relative to baseline, placebo and zolpidem treatment groups (Table 16)): reduced | sSOL Change from Study Baseline, Mean (SD) [3, 5]: −22.54 (32.812) minutes | sSOL Change from Study Baseline, Median [3, 5]: -14.86 min | sSOL, Mean (SD) [3, 5]: 42.39 (28.075) minutes | sSOL, Median [3, 5]: 29.64 min | sSOL Change from Study Baseline, Mean (SD) [3, 6]: −25.20 (34.854) minutes | sSOL Change from Study Baseline, Median [3, 6]: -18.54 min | sSOL, Mean (SD) [3, 6]: 38.80 (28.028) minutes | sSOL, Median [3, 6]: 30.36 min | sSOL, Mean (SD) ([3]; 5 mg, Study Baseline): 65.79 (43.530) minutes | sSOL, Median ([3]; 5 mg, Study Baseline): 58.57 min | sSOL Change from Study Baseline, Mean (SD) [3, 7]: −21.88 (29.269) minutes | sSOL Change from Study Baseline, Median [3, 7]: -15.00 min | sSOL, Mean (SD) [3, 7]: 38.64 (32.092) minutes | sSOL Change from Study Baseline, Mean (SD) [3, 8]: −24.79 (34.068) minutes | sSOL Change from Study Baseline, Median [3, 8]: -17.14 min | sSOL, Mean (SD) [3, 8]: 36.51 (31.059) minutes | sSOL, Median [3, 8]: 27.50 min | sSOL, Mean (SD) ([3]; 10 mg, Study Baseline): 60.88 (42.514) minutes | sSOL, Median ([3]; 10 mg, Study Baseline): 53.57 min | mean subjective sleep onset latency ([3]; all lemborexant treatment groups, relative to baseline, placebo and zolpidem treatment groups (Table 18)): reduced | cognitive tests compared with placebo [4]: neither dose of lemborexant differed from placebo
